Source: paper PMC5974779, “Prediction of Drug-Induced Hepatotoxicity Using Long-Term Stable Primary Hepatic 3D Spheroid Cultures in Chemically Defined Conditions” (Toxicological Sciences, 2018)
Structures can show the parent of a compound that is named as a salt. Where two headings read alike, the source gives them in different places.

Experiments:
PHH 2D sandwich cultures = settings: cited from earlier work; for hepatotoxicity detection in 2D sandwich cultures of PHH: 100× cmax, 24 h, high content imaging; for hepatotoxicity detection in 2D sandwich cultures of PHH / reactive oxygen species levels in 2D sandwich cultures of PHH: ref Xu et al., 2008
clinical DILI in man = settings: in vivo; cited from earlier work
[1] = system: primary human hepatocytes (PHH) 3D spheroids
[2] = cited from earlier work
[3] = ref DrugBank and Prescribers' Digital Reference database; cited from earlier work
[4] = PHH 2D sandwich cultures, 100x Cmax, ref Xu 2008
[5] = therapeutic total cmax, ref PMID

Row | Chemically defined spheroids (this study) 20x [1] | SMILES | 2Dsw (Xu 2008) 100x (PHH 2D sandwich cultures; [4]) | Classified as (clinical DILI in man) | Clinical DILI class (panel heading of Figure 4) (clinical DILI in man) | DILI in vivo (clinical DILI in man) | Type of DILI (clinical DILI in man) | Cmax [2, 5] [nM] | further results
1 | Negative | CCN(CC)C(=O)N1CCN(C)CC1 [Diethylcarbamazine] | – | – | – | – | – | 1630 | –
2 | Negative | COc1ccc([C@@H]2Sc3ccccc3N(CCN(C)C)C(=O)[C@@H]2OC(C)=O)cc1 [Diltiazem] | – | – | – | – | – | 327 | –
3 | Positive | CCN(CC)C(=S)SSC(=S)N(CC)CC [Disulfiram] | – | – | – | – | – | 1350 | –
4 | Negative | C[C@]12CCC(=O)C=C1CC[C@@H]1[C@@H]2[C@@H](O)C[C@@]2(C)[C@H]1CC[C@]2(O)C(=O)CO [Hydrocortisone] | Negative | NEG | DILI negative | NEG | Non-hepatotoxic | 840 | FDA (0-8) (clinical DILI in man): 0; Xu et al. (2008) (clinical DILI in man): Negative
5 | Negative | N[C@@H](Cc1ccc(O)c(O)c1)C(=O)O [Levodopa] | Negative | – | – | – | – | 6850 | –
6 | Positive | NCCCC[C@H](N[C@@H](CCc1ccccc1)C(=O)O)C(=O)N1CCC[C@H]1C(=O)O [Lisinopril] | – | – | – | – | – | 660 | hepatotoxicity detection in 2D sandwich cultures of PHH (PHH 2D sandwich cultures): liver toxicity was not recognized
7 | Positive | Cc1cccc(C)c1OCC(C)N (stereo not drawn) [Mexiletine] | – | POS | High DILI concern | POS | Hepatocellular injury or Mixed hepatitis | 35000 | 2Dsw (Xu 2008) 100x (PHH 2D sandwich cultures): Positive; FDA (0-8) (clinical DILI in man): 3; FDA (Severity) (clinical DILI in man): less DILI concern; Suzuki et al. (2010) (clinical DILI in man): 1; Xu et al. (2008) (clinical DILI in man): Positive
8 | Negative | Clc1ccc(COC(Cn2ccnc2)c2ccc(Cl)cc2Cl)c(Cl)c1 (stereo not drawn) [Miconazole] | – | – | – | – | – | 24 | –
9 | Positive | COCCOC(=O)C1=C(C)NC(C)=C(C(=O)OC(C)C)C1c1cccc([N+](=O)[O-])c1 (stereo not drawn) [Nimodipine] | Positive | – | – | – | – | 110 | –
10 | Negative | CC(N/C(=N\C#N)Nc1ccncc1)C(C)(C)C (stereo not drawn) [Pinacidil] | Negative | NEG | DILI negative | NEG | Non-hepatotoxic | 290 | –
11 | Negative | CC(=O)Nc1ccc(OCC(O)CNC(C)C)cc1 (stereo not drawn) [Practolol] | – | – | – | – | – | 18800 | –
12 | Positive | C=C[C@H]1C[N@@]2CC[C@H]1C[C@@H]2[C@@H](O)c1ccnc2ccc(OC)cc12 [Quinidine] | – | – | – | – | – | 8660 | 2Dsw (Xu 2008) 100x (PHH 2D sandwich cultures): Positive
13 | Positive | O=C(O)c1cc(/N=N/c2ccc(S(=O)(=O)Nc3ccccn3)cc2)ccc1O [Sulfasalazine] | – | – | – | – | – | 15100 | –

Continued, compound first:

Row | SMILES | Chemically defined spheroids (this study) 20x [1] | 2Dsw (Xu 2008) 100x (PHH 2D sandwich cultures; [4]) | Classified as (clinical DILI in man) | Clinical DILI class (panel heading of Figure 4) (clinical DILI in man) | DILI in vivo (clinical DILI in man) | Type of DILI (clinical DILI in man) | Cmax [2, 5] [nM] | further results
14 | CCCSc1ccc2nc(NC(=O)OC)[nH]c2c1 [Albendazole] | Negative | Positive | POS | Severe DILI | POS | Cholestatic injury or Mixed hepatitis | 900 | hepatotoxicity detection in 2D sandwich cultures of PHH (PHH 2D sandwich cultures): flagged as hepatotoxic; reactive oxygen species levels in 2D sandwich cultures of PHH (PHH 2D sandwich cultures): only slight increases in reactive oxygen species levels; FDA (0-8) (clinical DILI in man): 7; Suzuki et al. (2010) (clinical DILI in man): 1; Xu et al. (2008) (clinical DILI in man): Positive; hepatotoxicity evaluation in CD-spheroids [1]: predicted to be DILI negative
15 | NC12CC3CC(CC(C3)C1)C2 [Amantadine] | Negative | – | NEG | DILI negative | NEG | Non-hepatotoxic | 4300 | 2Dsw (Xu 2008) 100x (PHH 2D sandwich cultures): Negative; FDA (0-8) (clinical DILI in man): 3; FDA (Severity) (clinical DILI in man): less DILI concern; Xu et al. (2008) (clinical DILI in man): Negative
16 | N=C(N)NC(=O)c1nc(Cl)c(N)nc1N [Amiloride] | Negative | – | NEG | DILI negative | NEG | Non-hepatotoxic | 87 | 2Dsw (Xu 2008) 100x (PHH 2D sandwich cultures): Negative; FDA (0-8) (clinical DILI in man): 3; Suzuki et al. (2010) (clinical DILI in man): 2; Xu et al. (2008) (clinical DILI in man): Negative
17 | CC(C)NCC(O)COc1ccc(CC(N)=O)cc1 (stereo not drawn) [Atenolol] | – | Negative | – | – | – | – | – | –
18 | CCC(=O)OCC(=O)[C@@]1(OC(=O)CC)[C@@H](C)C[C@H]2[C@@H]3CCC4=CC(=O)C=C[C@]4(C)[C@@]3(Cl)[C@@H](O)C[C@@]21C [Beclomethasone Dipropionate] | Negative | – | – | – | – | – | 0.15 | –
19 | CN(C)CCC(c1ccc(Br)cc1)c1ccccn1 (stereo not drawn) [Brompheniramine Maleate] | Negative | – | – | – | – | – | 27 | –
20 | CN(C)CCCN1c2ccccc2CCc2ccc(Cl)cc21 [Clomipramine] | Positive | – | – | – | – | – | – | hepatotoxicity detection in 2D sandwich cultures of PHH (PHH 2D sandwich cultures): liver toxicity was not recognized
21 | CN1CCN(C2=Nc3cc(Cl)ccc3Nc3ccccc32)CC1 [Clozapine] | – | – | – | – | – | – | 2450 | Extent of hepatic metabolism [3]: Extensive
22 | O=c1ccc2ccccc2o1 [Coumarin] | Positive | – | POS | High DILI concern | POS | Cholestatic injury | 10000 | –
23 | NS(=O)(=O)c1cc(C(=O)O)c(NCc2ccco2)cc1Cl [Furosemide] | – | Negative | – | – | – | – | – | –
24 | CN(C)C(=O)C(CCN1CCC(O)(c2ccc(Cl)cc2)CC1)(c1ccccc1)c1ccccc1 [Loperamide] | – | – | – | – | – | – | – | Cmax ([2]; human, in vivo): 7.8 nM
25 | CN(C)CCN(Cc1cccs1)c1ccccn1 [Methapyrilene] | – | – | NEG | DILI negative | NEG | Non-hepatotoxic | 170 | Extent of hepatic metabolism [3]: Moderate
26 | CCc1c(C)[nH]c2c1C(=O)C(CN1CCOCC1)CC2 (stereo not drawn) [Molindone] | Negative | Negative | POS | High DILI concern | POS | Hepatocellular injury | 1540 | –
27 | COC(=O)C1=C(C)NC(C)=C(C(=O)OCCN(C)Cc2ccccc2)C1c1cccc([N+](=O)[O-])c1 (stereo not drawn) [Nicardipine] | – | – | – | – | – | – | 80 | –
28 | CC(C)NCC(O)COc1cccc2[nH]ccc12 (stereo not drawn) [Pindolol] | – | Negative | NEG | DILI negative | NEG | Non-hepatotoxic | 270 | FDA (0-8) (clinical DILI in man): 0; Xu et al. (2008) (clinical DILI in man): Negative
29 | CC(C)NCC(O)COc1cccc2ccccc12 (stereo not drawn) [Propranolol] | – | – | – | – | – | – | – | Extent of hepatic metabolism [3]: Extensive
30 | CC/C(=C(\c1ccccc1)c1ccc(OCCN(C)C)cc1)c1ccccc1 [Tamoxifen] | – | – | – | – | – | – | 160 | Extent of hepatic metabolism [3]: Extensive
31 | CN(C)[C@@H]1C(O)=C(C(N)=O)C(=O)[C@@]2(O)C(O)=C3C(=O)c4c(O)cccc4[C@@](C)(O)[C@H]3C[C@@H]12 [Tetracycline] | – | – | POS | High DILI concern | POS | Hepatocellular injury | – | FDA (0-8) (clinical DILI in man): 2; FDA (Severity) (clinical DILI in man): less DILI concern; Guo et al. (2005) (clinical DILI in man): 3; O'Brien et al. (2003) (clinical DILI in man): Moderately; Sakatis et al. (2012) (clinical DILI in man): Hepatotoxic; Suzuki et al. (2010) (clinical DILI in man): 1; Xu et al. (2008) (clinical DILI in man): Positive
32 | CN1CCN(CCCN2c3ccccc3Sc3ccc(C(F)(F)F)cc32)CC1 [Trifluoperazine] | Negative | Positive | POS | High DILI concern | POS | Cholestatic injury or Mixed hepatitis | 4.5 | hepatotoxicity detection in 2D sandwich cultures of PHH (PHH 2D sandwich cultures): flagged as hepatotoxic; reactive oxygen species levels in 2D sandwich cultures of PHH (PHH 2D sandwich cultures): only slight increases in reactive oxygen species levels; FDA (0-8) (clinical DILI in man): 2; FDA (Severity) (clinical DILI in man): less DILI concern; O'Brien et al. (2003) (clinical DILI in man): Moderately; Xu et al. (2008) (clinical DILI in man): Positive; hepatotoxicity evaluation in CD-spheroids [1]: predicted to be DILI negative
33 | CC(=O)CC(c1ccccc1)c1c(O)c2ccccc2oc1=O (stereo not drawn) [Warfarin] | Negative | – | – | – | – | – | 4860 | –
